Publication PMC10094617, “Iron(III) Complexes with Non-Steroidal Anti-Inflammatory Drugs: Structure, Antioxidant and Anticholinergic Activity, and Interaction with Biomolecules” (International Journal of Molecular Sciences, 2023)
Where a name gives a salt, the structure may show the parent alone.

What was measured:
[1] = DPPH radical scavenging; type: biochemical; settings: compound 0.1 mM, ethanol
Protocol: (§1) The antioxidant activity of complexes 1–3 was evaluated via their ability to scavenge the free radicals DPPH, hydroxyl, and ABTS. Each experiment was performed in triplicate and the standard deviation of absorbance was less than 10% of the mean.
Ethanol was also used as a control solution. The absorbance at 517 nm was recorded at room temperature, two times, after 20 and 60 min, in order to examine the time-dependence of the DPPH-scavenging activity. The DPPH-scavenging activity of the compounds was expressed as the percentage reduction of the absorbance values of the initial DPPH solution (RA%). The compounds NDGA and BHT were used as reference compounds.

[2] = Competition with DMSO for hydroxyl radicals; type: biochemical; settings: compound 0.1 mM; 30 min, 37 °C, pH 7.4
Protocol: as §1
Competition of the tested compounds with DMSO for hydroxyl radicals: The hydroxyl radicals generated by the Fe^3+/ascorbic acid system were detected according to Nash by the determination of formaldehyde produced from the oxidation of DMSO [155]. The reaction mixture contained EDTA (0.1 mM), Fe^3+ (167 μM), DMSO (33 mM) in phosphate buffer (50 mM, pH 7.4), complexes 1–3 (concentration 0.1 mM), and ascorbic acid (10 mM). After a 30-min incubation at 37 °C, the reaction was stopped with CCl3COOH (17% w/v) and the absorbance at λ = 412 nm was measured. Trolox was used as a reference compound. The competition of the compounds with DMSO for •OH, generated by the Fe^3+/ascorbic acid system, expressed as the percentage of inhibition of formaldehyde production, was used for the evaluation of their hydroxyl radical-scavenging activity (OH%).

[3] = target: T1, electric eel acetylcholinesterase (eeAChE) (Electrophorus electricus, UniProt O42275); test: Inhibition of acetylcholinesterase (modified Ellman's method); type: biochemical; settings: 10^−3 M of the compound, pH 7.4, 37 °C; for inhibition at 1000 µM: read-out: AChE (I%) inhibition rate
T1 construct: purchased J&K Scientific Co. (Beijing, China)
Protocol: (§2) In the study of cholinesterase inhibitors, the inhibitory effect of the compounds (the NSAIDs and their complexes 1–3) against AChE and BuChE was examined using a modified methodology based on Ellman’s method.
(§3) The ability of the compounds to inhibit AChE and BuChE was evaluated using UV-vis spectroscopy. All the assays were carried out in a 0.1M NaH2PO4/Na2HPO4 buffer at a pH = 7.4. Enzyme solutions were prepared with 2.0 U/mL for AChE and 3.0 U/mL for BuChE. A reaction mixture containing 20 μL of phosphate buffer, 100 μL of DTNB (1-mM), and 40 μL of the enzyme (AChE and BuChE) was incubated with 20 μL of the compounds at various concentrations at 37 °C for 15 min. The reaction was started by the addition of the substrate (20-μL) of ATCI or BTCI solution (1-mM), respectively, and incubation for additional 3 min.
(§4) The enzyme activity was determined by measuring the increase in absorbance at 2-min intervals at 412 nm at 37 °C (ε = 14,150 M^−1cm^−1).
The rate of inhibition of each enzyme by the compounds was calculated according to the following expression:(1) I%=(1−VB/VA)×100 where VB and VA indicate the absorbance measured for ChEs in the presence and absence of inhibitors, respectively. The results are expressed as the average of three repetitions of the tests performed and the standard deviation was less than 3% of the mean. The selectivity index (SI), defined as IC50 BuChE/IC50 AChE, was also calculated. Neostigmine methyl sulfate was used as the appropriate standard.

[4] = target: T2, equine serum butyrylcholinesterase (eqBuChE) (Equus caballus, UniProt P81908); test: Inhibition of butyrylcholinesterase (modified Ellman's method); type: biochemical; settings: for inhibition at 1000 µM: read-out: BuChE (I%) inhibition rate; for SI (selectivity index = IBuChE/IAChE): ratio of inhibition rates at 10^−3 M
T2 construct: purchased J&K Scientific Co. (Beijing, China); host or cells: equine serum (by the product's name)
Protocol: as §2, §3, §4
The rate of inhibition of each enzyme by the compounds was calculated according to the following expression:(1) I%=(1−VB/VA)×100 where VB and VA indicate the absorbance measured for ChEs in the presence and absence of inhibitors, respectively. […] Neostigmine methyl sulfate was used as the appropriate standard.

[5] = ABTS radical cation scavenging; type: biochemical; settings: compound 0.1 mM; 1 min after mixing
Protocol: as §1
Assay of radical cation scavenging activity (ABTS^+•): An ABTS cationic radical (ABTS^+•) was produced by reacting an aqueous stock solution (2 mM) of ABTS with 0.17-mM potassium persulfate and allowing the mixture to stand in the dark at room temperature for 12–16 h before use. […] Although the oxidation of ABTS commenced immediately, the absorbance became maximal and stable after 6 h. The radical was stable in this form for more than two days when stored in the dark at room temperature. The ABTS radical solution was diluted with ethanol to an absorbance of 0.70 at 734 nm. After the addition of 10 μL of complexes 1–3 or the standards (0.1 mM) in DMSO, the absorbance was recorded exactly 1 min after initial mixing. The radical scavenging activity of the complexes was expressed as the percentage inhibition of the absorbance of the initial ABTS solution (ABTS%). Trolox was used as a reference compound.

[6] = Solubility of the complexes; type: physicochemical
[7] = system: EB–DNA adduct (CT DNA); test: EB-displacement from EB–DNA adduct (fluorescence emission); type: binding, calf
Protocol: EB-displacement studies: The competition of complexes 1–3 with EB was investigated by fluorescence emission spectroscopy in order to examine whether the complexes can displace EB from its DNA–EB conjugate. The DNA–EB conjugate was prepared by adding 20-μM EB and 26-μM CT DNA in the buffer solution (150-mM NaCl and 15-mM trisodium citrate at pH 7.0). The possible intercalating effect of the complexes was studied by the addition of a certain amount of a solution of the compound into a solution of the DNA–EB conjugate. The influence of each compound to the DNA–EB complex solution was obtained by recording the changes in the fluorescence emission spectra with the excitation wavelength (λex) at 540 nm.
The Stern–Volmer constant KSV is used to evaluate the quenching efficiency for each compound according to the Stern–Volmer equation (Equation (3)), where Io and I are the emission intensities in the absence and the presence of the quencher, respectively, and [Q] is the concentration of the quencher (i.e., complexes 1–3). The value of KSV is obtained from the Stern–Volmer plots by using the slope of the diagram Io/I versus [Q]. Taking τo = 23 ns as the fluorescence lifetime of the EB–DNA system, the EB–DNA quenching constants (Kq, in M^−1s^−1) of the compounds can be determined according to Equation (4).

[8] = set-up: method as in PMID 8216032; settings: cited from earlier work
[9] = target: calf-thymus (CT) DNA; set-up: method as in PMID 3427013; settings: cited from earlier work
[10] = 10^−3 M of the compound, pH 7.4, 37 °C

T1 sequence (O42275 24-633): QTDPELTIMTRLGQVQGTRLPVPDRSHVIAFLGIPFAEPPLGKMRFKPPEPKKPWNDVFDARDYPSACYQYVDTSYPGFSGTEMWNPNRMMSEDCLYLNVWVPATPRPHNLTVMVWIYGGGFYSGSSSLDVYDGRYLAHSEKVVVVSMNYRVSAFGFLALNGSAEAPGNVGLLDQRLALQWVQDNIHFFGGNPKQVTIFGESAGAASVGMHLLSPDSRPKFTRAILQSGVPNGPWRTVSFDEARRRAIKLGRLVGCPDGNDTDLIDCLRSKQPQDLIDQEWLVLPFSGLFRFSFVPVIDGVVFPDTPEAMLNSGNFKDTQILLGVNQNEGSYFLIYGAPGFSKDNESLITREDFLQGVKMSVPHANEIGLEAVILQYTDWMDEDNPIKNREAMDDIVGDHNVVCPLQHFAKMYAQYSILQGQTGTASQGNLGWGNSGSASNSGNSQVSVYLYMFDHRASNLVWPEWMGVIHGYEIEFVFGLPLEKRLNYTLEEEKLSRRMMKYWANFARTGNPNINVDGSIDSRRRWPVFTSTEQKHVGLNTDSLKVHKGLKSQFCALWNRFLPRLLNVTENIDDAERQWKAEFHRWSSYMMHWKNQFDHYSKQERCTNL
T2 sequence (P81908 whole entry): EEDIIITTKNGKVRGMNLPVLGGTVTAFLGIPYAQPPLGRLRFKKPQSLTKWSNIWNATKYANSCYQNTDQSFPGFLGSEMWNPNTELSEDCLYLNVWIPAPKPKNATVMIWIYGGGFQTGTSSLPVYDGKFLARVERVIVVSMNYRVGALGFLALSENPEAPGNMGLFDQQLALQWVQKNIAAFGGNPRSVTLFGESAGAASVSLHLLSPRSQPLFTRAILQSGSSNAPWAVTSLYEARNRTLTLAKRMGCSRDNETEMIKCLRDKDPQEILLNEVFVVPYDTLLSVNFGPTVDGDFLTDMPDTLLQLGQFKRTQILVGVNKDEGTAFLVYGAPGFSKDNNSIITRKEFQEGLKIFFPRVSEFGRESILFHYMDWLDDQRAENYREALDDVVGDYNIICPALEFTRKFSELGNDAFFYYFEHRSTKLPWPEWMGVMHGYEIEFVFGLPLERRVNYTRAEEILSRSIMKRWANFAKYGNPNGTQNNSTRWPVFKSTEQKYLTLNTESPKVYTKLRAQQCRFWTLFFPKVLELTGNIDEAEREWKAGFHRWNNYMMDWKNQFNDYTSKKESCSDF

SMILES | DPPH% (DPPH scavenging ability), 20 min [1] | DPPH% (DPPH scavenging ability), 60 min [1] | OH% (competition % with DMSO for hydroxyl radical) [2] | inhibition at 1000 µM [3] | inhibition at 1000 µM [4, 10] | SI (selectivity index = IBuChE/IAChE) [4] | ABTS% (ABTS radical scavenging activity) [5] | other results
CC(Cc1ccc(O)c(O)c1)C(C)Cc1ccc(O)c(O)c1 (centres unmarked) [NDGA, nordihydroguaiaretic acid] | 81.02 ± 0.18% | 82.60 ± 0.17% | – | – | – | – | – | –
O=C(O)Cc1ccccc1Nc1c(Cl)cccc1Cl [Nadicl, Sodium diclofenac] | 18.26 ± 0.60% | 17.43 ± 0.23% | 75.46 ± 0.44% | 10.3 ± 1.75% | 14.1 ± 0.12% | 1.37 | 76.35 ± 0.75% | –
C[O-].C[O-].O.O=C([O-])c1cc(-c2ccc(F)cc2F)ccc1[O-].O=C([O-])c1cc(-c2ccc(F)cc2F)ccc1[O-].[Fe+3].[Fe+3].c1cnc2c(c1)ccc1cccnc12.c1cnc2c(c1)ccc1cccnc12 [Complex 1, [Fe2(difl)2(MeO)2(phen)2]∙H2O] | 12.57 ± 0.29% | 15.86 ± 0.62% | 91.08 ± 1.81% | – | – | – | 85.38 ± 0.92% | solubility [6]: Soluble in DMF and DMSO; KSV Stern–Volmer constant (EB–DNA) ([7]; EB–DNA fluorescence): 6.37 (±0.40) × 10^5 M^−1; ΔI/Io (%) EB–DNA fluorescence quenching ([7]; [EB] = 20 μM, [DNA] = 26 μM, λex 540 nm, λem 592 nm): 66.8%; Kq quenching constant of the EB–DNA fluorescence ([7]; τo = 23 ns): 2.77 (±0.10) × 10^13 M^−1s^−1; AChE (I%) inhibition rate [3]: 1.77 ± 0.82%; BuChE (I%) inhibition rate [4, 10]: 79.25 ± 2.00%
Cc1c(C)c2c(c(C)c1O)CCC(C)(C(=O)O)O2 (centres unmarked) [Trolox, 6-hydroxy-2,5,7,8-tetramethylchromane-2-carboxylic acid, reference compound] | – | – | 82.80 ± 0.13% | – | – | – | 91.8 ± 0.17% | –
CN(C)C(=O)Oc1cccc([N+](C)(C)C)c1 [Neo, Neostigmine methyl sulfate] | – | – | – | 96.98 ± 0.02% | 98.4 ± 1.55% | 1.01 | – | –
O=C(O)c1cc(-c2ccc(F)cc2F)ccc1O [Complex H2difl, Diflunisal] | 10.42 ± 0.56% | 14.31 ± 0.45% | 86.06 ± 0.38% | 17.2 ± 1.46% | 22.9 ± 1.71% | 1.32 | 76.58 ± 0.74% | half-life period of activity [8]: ~ 12 h
CC[n+]1c(-c2ccccc2)c2cc(N)ccc2c2ccc(N)cc21.[Br-] [EB, 3,8-diamino-5-ethyl-6-phenyl-phenanthridinium bromide] | – | – | – | – | – | – | – | Kb DNA-binding constant of the classical intercalator EB [9]: 1.23 (±0.07) × 10^5 M^−1
Cc1cc(C(C)(C)C)c(O)c(C(C)(C)C)c1 [BHT, butylated hydroxytoluene] | 31.30 ± 0.10% | 60.00 ± 0.38% | – | – | – | – | – | –
